# From ChEMBL document CHEMBL1201862, “PubChem BioAssay data set” (2004)
#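 Assay format: 96-well plates, 48-hour exposure. GI50 is the concentration that inhibits growth by half.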 Calls of active or inactive are those of the source. Cut-off read from the data, not from the text of the source: active = GI50 up to about 1.1 µM and inactive = higher.
# Columns and labels:
# Assay in all cases: NCI anticancer screen, dose series, 48 h
# [1] = system: A549
# [2] = system: ACHN
# [3] = system: CAKI-1
# [4] = system: CCRF-CEM
# [5] = system: COLO 205
# [6] = system: DMS-114
# [7] = system: EKVX
# [8] = system: HCC 2998
# [9] = system: HCT-116
# [10] = system: HCT-15
# [11] = system: HL-60
# [12] = system: HOP-18
# [13] = system: HOP-62
# [14] = system: HOP-92
# [15] = system: HT-29
# [16] = system: IGROV-1
# [17] = system: K562
# [18] = system: KM-20L2
# [19] = system: LXFL 529
# [20] = system: M14
# [21] = system: M19-MEL
# [22] = system: MOLT-4
# [23] = system: Malme-3M
# [24] = system: NCI-H226
# [25] = system: NCI-H23
# [26] = system: NCI-H460
# [27] = system: NCI-H522
# [28] = system: OVCAR-3
# [29] = system: OVCAR-4
# [30] = system: OVCAR-5
# [31] = system: OVCAR-8
# [32] = system: RPMI-8226
# [33] = system: RXF 393
# [34] = system: RXF 631
# [35] = system: SF-268
# [36] = system: SF-295
# [37] = system: SF-539
# [38] = system: SK-MEL-28
# [39] = system: SK-MEL-2
# [40] = system: SK-MEL-5
# [41] = system: SK-OV-3
# [42] = system: SN12C
# [43] = system: SNB-19
# [44] = system: SNB-75
# [45] = system: SNB-78
# [46] = system: SR
# [47] = system: SW-620
# [48] = system: TK-10
# [49] = system: U-251
# [50] = system: UACC-257
# [51] = system: UACC-62
# [52] = system: UO-31
# [53] = system: XF498
# [54] = system: 786-0
# [55] = system: A498
# [56] = system: DLD-1
# [57] = system: DMS-273
# [58] = system: KM12
# [59] = system: LOX IMVI
compound,measurement,setting,value
COc1ccc(/N=C\c2ccc(N(CCC#N)S(=O)(=O)c3ccccc3)cc2C)cc1,GI50,[1],26.5 µM (inactive)
same,GI50,[2],15.6 µM (inactive)
same,GI50,[3],35.5 µM (inactive)
same,GI50,[4],30.2 µM (inactive)
same,GI50,[5],27.2 µM (inactive)
same,GI50,[6],13.2 µM (inactive)
same,GI50,[7],> 100 µM (inactive)
same,GI50,[8],32 µM (inactive)
same,GI50,[9],87.1 µM (inactive)
same,GI50,[10],8.53 µM
same,GI50,[11],16.9 µM (inactive)
same,GI50,[12],> 100 µM (inactive)
same,GI50,[13],25.1 µM (inactive)
same,GI50,[14],> 100 µM (inactive)
same,GI50,[15],53.7 µM (inactive)
same,GI50,[16],64.1 µM (inactive)
same,GI50,[17],11.1 µM (inactive)
same,GI50,[18],12 µM (inactive)
same,GI50,[19],8.99 µM (inactive)
same,GI50,[20],14.6 µM (inactive)
same,GI50,[21],41.7 µM (inactive)
same,GI50,[22],27.4 µM (inactive)
same,GI50,[23],25.6 µM (inactive)
same,GI50,[24],> 100 µM (inactive)
same,GI50,[25],43 µM (inactive)
same,GI50,[26],34.8 µM (inactive)
same,GI50,[27],> 100 µM (inactive)
same,GI50,[28],53.7 µM (inactive)
same,GI50,[29],74.6 µM (inactive)
same,GI50,[30],> 100 µM (inactive)
same,GI50,[31],> 100 µM (inactive)
same,GI50,[32],> 100 µM (inactive)
same,GI50,[33],> 100 µM (inactive)
same,GI50,[34],59.8 µM (inactive)
same,GI50,[35],3.58 µM (inactive)
same,GI50,[36],63.2 µM (inactive)
same,GI50,[37],44.2 µM (inactive)
same,GI50,[38],39.9 µM (inactive)
same,GI50,[39],23.3 µM (inactive)
same,GI50,[40],51.1 µM (inactive)
same,GI50,[41],> 100 µM (inactive)
same,GI50,[42],> 100 µM (inactive)
same,GI50,[43],> 100 µM (inactive)
same,GI50,[44],> 100 µM (inactive)
same,GI50,[45],79.1 µM (inactive)
same,GI50,[46],7.96 µM (inactive)
same,GI50,[47],59.8 µM (inactive)
same,GI50,[48],22.9 µM (inactive)
same,GI50,[49],> 100 µM (inactive)
same,GI50,[50],39.5 µM (inactive)
same,GI50,[51],8.99 µM (inactive)
same,GI50,[52],23.3 µM (inactive)
same,GI50,[53],> 100 µM (inactive)
O=C(O)/C(=C\c1ccccc1Cl)S(=O)(=O)c1ccccc1,GI50,[54],> 100 µM (inactive)
same,GI50,[55],> 100 µM (inactive)
same,GI50,[1],> 100 µM (inactive)
same,GI50,[2],> 100 µM (inactive)
same,GI50,[3],> 100 µM (inactive)
same,GI50,[4],14.5 µM (inactive)
same,GI50,[5],> 100 µM (inactive)
same,GI50,[56],> 100 µM (inactive)
same,GI50,[6],> 100 µM (inactive)
same,GI50,[57],> 100 µM (inactive)
same,GI50,[8],> 100 µM (inactive)
same,GI50,[9],> 100 µM (inactive)
same,GI50,[10],> 100 µM
same,GI50,[11],> 100 µM (inactive)
same,GI50,[12],> 100 µM (inactive)
same,GI50,[13],> 100 µM (inactive)
same,GI50,[14],> 100 µM (inactive)
same,GI50,[15],> 100 µM (inactive)
same,GI50,[16],> 100 µM (inactive)
same,GI50,[17],> 100 µM (inactive)
same,GI50,[18],> 100 µM (inactive)
same,GI50,[58],> 100 µM (inactive)
same,GI50,[59],> 100 µM (inactive)
same,GI50,[19],> 100 µM (inactive)
same,GI50,[20],> 100 µM (inactive)
same,GI50,[21],> 100 µM (inactive)
same,GI50,[22],> 100 µM (inactive)
same,GI50,[23],> 100 µM (inactive)
same,GI50,[26],> 100 µM (inactive)
same,GI50,[27],> 100 µM (inactive)
same,GI50,[29],> 100 µM (inactive)
same,GI50,[30],> 100 µM (inactive)
same,GI50,[31],> 100 µM (inactive)
same,GI50,[32],> 100 µM (inactive)
same,GI50,[33],> 100 µM (inactive)
same,GI50,[34],> 100 µM (inactive)
same,GI50,[35],> 100 µM (inactive)
same,GI50,[36],> 100 µM (inactive)
same,GI50,[37],> 100 µM (inactive)
same,GI50,[39],> 100 µM (inactive)
same,GI50,[40],> 100 µM (inactive)
same,GI50,[41],> 100 µM (inactive)
same,GI50,[42],> 100 µM (inactive)
same,GI50,[43],> 100 µM (inactive)
same,GI50,[44],> 100 µM (inactive)
same,GI50,[45],> 100 µM (inactive)
same,GI50,[46],> 10 µM (inactive)
same,GI50,[47],> 100 µM (inactive)
same,GI50,[48],> 100 µM (inactive)
same,GI50,[49],> 100 µM (inactive)
same,GI50,[50],> 100 µM (inactive)
same,GI50,[51],> 100 µM (inactive)
same,GI50,[52],> 100 µM (inactive)
C=C(C(=C)N1N=NC2C3CCC(C3)C21)N1N=NC2C3CCC(C3)C21 (configuration not stated),GI50,[54],> 100 µM (inactive)
same,GI50,[1],> 100 µM (inactive)
same,GI50,[2],> 100 µM (inactive)
same,GI50,[3],> 100 µM (inactive)
same,GI50,[4],24.9 µM (inactive)
same,GI50,[5],> 100 µM (inactive)
same,GI50,[56],> 100 µM (inactive)
same,GI50,[6],> 100 µM (inactive)
same,GI50,[57],> 100 µM (inactive)
same,GI50,[8],> 100 µM (inactive)
same,GI50,[9],> 100 µM (inactive)
same,GI50,[11],16.9 µM (inactive)
same,GI50,[12],> 100 µM (inactive)
same,GI50,[13],> 100 µM (inactive)
same,GI50,[14],> 100 µM (inactive)
same,GI50,[15],> 100 µM (inactive)
same,GI50,[16],> 100 µM (inactive)
same,GI50,[17],65.2 µM (inactive)
same,GI50,[58],> 100 µM (inactive)
same,GI50,[59],68.5 µM (inactive)
same,GI50,[19],> 100 µM (inactive)
same,GI50,[20],> 100 µM (inactive)
same,GI50,[21],> 100 µM (inactive)
same,GI50,[22],41.1 µM (inactive)
same,GI50,[23],> 100 µM (inactive)
same,GI50,[25],> 100 µM (inactive)
same,GI50,[26],> 100 µM (inactive)
same,GI50,[27],66.5 µM (inactive)
same,GI50,[28],> 100 µM (inactive)
same,GI50,[29],> 100 µM (inactive)
same,GI50,[30],> 100 µM (inactive)
same,GI50,[31],> 100 µM (inactive)
same,GI50,[33],> 100 µM (inactive)
same,GI50,[34],> 100 µM (inactive)
same,GI50,[35],> 100 µM (inactive)
same,GI50,[36],> 100 µM (inactive)
same,GI50,[37],> 100 µM (inactive)
same,GI50,[38],> 100 µM (inactive)
same,GI50,[40],> 100 µM (inactive)
same,GI50,[42],> 100 µM (inactive)
same,GI50,[43],> 100 µM (inactive)
same,GI50,[44],55.1 µM (inactive)
same,GI50,[45],> 100 µM (inactive)
same,GI50,[46],38.7 µM (inactive)
same,GI50,[47],> 100 µM (inactive)
same,GI50,[48],> 100 µM (inactive)
same,GI50,[49],> 100 µM (inactive)
same,GI50,[50],> 100 µM (inactive)
same,GI50,[51],> 100 µM (inactive)
same,GI50,[52],> 100 µM (inactive)
same,GI50,[53],> 100 µM (inactive)
